system: asymmetric di-methyl PABP1 in RKO cells; experiment: In Cell Western (ICW) for asymmetric di-methyl PABP1 and DNA content in RKO cells; format: cell-based; conditions: 48 hours
In short: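 RKO cells treated with compound for 48 h at 37 °C, then fixed, methanol-permeabilized and stained for asymmetric di-methyl PABP1 (800 nm) with DRAQ5 DNA stain (700 nm). Signal ratio normalized to DMSO and 20 μM reference-compound controls. IC50 from nine 3-fold dilutions in triplicate.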

Row | Compound | IC50
1 | Cc1cc(C)c(CNC(=O)c2cc(-c3cccc(CN(C)CCN)c3)nc3c2cnn3C(C)C)c(=O)[nH]1 [Compound 360] | 0.934 µM
2 | CNCCN(C)Cc1cccc(-c2cc(C(=O)NCc3c(C)cc(C)[nH]c3=O)c3cnn(C(C)C)c3c2)c1 [Compound 367] | 6.48 µM
3 | CNCCN(C)Cc1cccc(-c2cc(C(=O)NCc3c(C)cc(C)[nH]c3=O)c3cnn(C(C)C)c3n2)c1 [Compound 368] | 1.01 µM
4 | CNCCN(C)Cc1cccc(-c2cc(C(=O)NCc3c(C)cc(C)[nH]c3=O)c(C)c3[nH]ncc23)c1 [Compound 372] | ≥ 20 µM

same assay, conditions: Homo sapiens, RKO, 48 h

Row | IC50 | Compound
5 | ≥ 20 µM | CNCCN(C)Cc1ccc(-c2cc(C(=O)NCc3c(C)cc(C)[nH]c3=O)c(C)c3n[nH]cc23)cc1 [Compound 362]

same assay, conditions: Homo sapiens, RKO, In Cell Western

Row | IC50 | Compound
6 | 0.897 µM | CNCCN(C)Cc1cccc(-c2nc(C(=O)NCc3cn4ccsc4n3)c3cnn(C4CC4)c3n2)c1 [Compound 180]
7 | 3.55 µM | CNCCN(C)Cc1cccc(-c2cc(C(=O)NCc3ccncc3)c3cnn(C(C)C)c3n2)c1 [Compound 182]
8 | 9.56 µM | CC(C)n1ncc2c(C(=O)N(C)CC3CCOCC3)cc(-c3cccc(CN(C)CCN)c3)nc21 [Compound 256]
9 | 20 µM | CN(CCN)Cc1cccc(-c2ccc(C(=O)NCC3CCOCC3)c(N(C)CC3CC3)c2)c1 [Compound 263]
10 | 6.38 µM | CNCCN(C)Cc1cccc(-c2cc(C(=O)N(C)Cc3ccccn3)c3cnn(C(C)C)c3n2)c1 [Compound 300]
